Where two headings read alike, the source gives them in different places.
Target: CFTR (Homo sapiens, UniProt P13569)
Assay: Membrane Potential Dye, Enteroid Assay B
Format: cell-based
Protocol: Base medium (ADF+++) consisted of Advanced […], 2 mM Glutamax, 10 mM HEPES, 1 μg/mL penicillin/streptomycin.
Intestinal enteroid maintenance medium (IEMMN) consisted of ADF+++, 1× B27 supplement, 1× N2 supplement, 1.25 mM N-acetyl cysteine, 10 mM Nicotinamide, 50 ng/mL hEGF, 10 nM Gastrin, 1 μg/mL hR-spondin-1, 100 ng/mL hNoggin, TGF-b type 1 inhibitor A-83-01, 100 μg/mL Primocin, 10 μM P38 MAPK inhibitor SB202190.
Bath 1 Buffer consisted of 1 mM MgCl2, 160 mM NaCl, 4.5 mM KCl, 10 mM HEPES, 10 mM Glucose, 2 mM CaCl2).
Chloride Free Buffer consisted of 1 mM Magnesium Gluconate, 2 mM Calcium Gluconate, 4.5 mM Potassium Gluconate, 160 mM Sodium Gluconate, 10 mM HEPES, 10 mM Glucose.
Bath 1 Dye Solution consisted of Bath 1 Buffer, 0.04% Pluronic F127, 20 μM Methyl Oxonol, 30 μM CaCCinh-A01, 30 μM Chicago Sky Blue.
Chloride Free Dye Solution consisted of Chloride Free Buffer, 0.04% Pluronic F127, 20 μM Methyl Oxonol, 30 μM CaCCinh-A01, 30 μM Chicago Sky Blue.
Chloride Free Dye Stimulation Solution consisted of Chloride Free Dye Solution, 10 μM forskolin, 100 μM IBMX, and 300 nM Compound III.
Human intestinal epithelial enteroid cells were obtained from the Hubrecht Institute for Developmental Biology and Stem Cell Research, Utrecht, The Netherlands and expanded in T-Flasks as previously described (Dekkers J F, Wiegerinck C L, de Jonge H R, Bronsveld I, Janssens H M, de Winter-de Groot K M, Brandsma A M, de Jong N W M, Bijvelds M J C, Scholte B J, Nieuwenhuis E E S, van den Brink S, Clevers H, van der Ent C K, Middendorp S and M Beekman J M. A functional CFTR assay using primary cystic fibrosis intestinal organoids. Nat Med. 2013 July; 19(7):939-45.).
3. Enteroid Cell Harvesting and Seeding
Cells were recovered in cell recovery solution, collected by centrifugation at 650 rpm for 5 min at 4° C., resuspended in TrypLE and incubated for 5 min at 37° C. Cells were then collected by centrifugation at 650 rpm for 5 min at 4° C. and resuspended in IEMM containing 10 μM ROCK inhibitor (RI). The cell suspension was passed through a 40 μm cell strainer and resuspended at 1×10^6 cells/mL in IEMM containing 10 μM RI. Cells were seeded at 5000 cells/well into multi-well plates and incubated for overnight at 37° C., 95% humidity and 5% CO2 prior to assay.
5. Membrane Potential Dye, Enteroid Assay B
Enteroid cells were incubated with test compound in IEMM for 18-24 hours at 37° C., 95% humidity and 5% CO2. […] Briefly, cells were washed 5 times in Bath 1 Buffer. Bath 1 Dye Solution was added and the cells were incubated for 25 min at room temperature. Following dye incubation, cells were washed 3 times in Chloride Free Dye Solution. Chloride transport was initiated by addition of Chloride Free Dye Stimulation Solution and the fluorescence signal was read for 15 min. […] Chloride transport was then expressed as a percentage of the chloride transport following treatment with 1 μM (14S)-8-[3-(2-{Dispiro[2.0.2.1]heptan-7-yl}ethoxy)-1H-pyrazol-1-yl]-12,12-dimethyl-2λ^6-thia-3,9,11,18,23-pentaazatetracyclo[17.3.1.111,14.05,10]tetracosa-1(22),5,7,9,19(23),20-hexaene-2,2,4-trione, 3 μM (R)-1-(2,2-difluorobenzo[d][1,3]dioxol-5-yl)-N-(1-(2,3-dihydroxypropyl)-6-fluoro-2-(1-hydroxy-2-methylpropan-2-yl)-1H-indol-5-yl)cyclopropanecarboxamide and 300 nM acute N-[2,4-bis(1,1-dimethylethyl)-5-hydroxyphenyl]-1,4-dihydro-4-oxoquinoline-3-carboxamide triple combination control (% Activity).

[1] = Table 10, read-out: Ent. B EC50

Chain of CFTR (P13569 with tags, fused parts or gaps DEL508-508): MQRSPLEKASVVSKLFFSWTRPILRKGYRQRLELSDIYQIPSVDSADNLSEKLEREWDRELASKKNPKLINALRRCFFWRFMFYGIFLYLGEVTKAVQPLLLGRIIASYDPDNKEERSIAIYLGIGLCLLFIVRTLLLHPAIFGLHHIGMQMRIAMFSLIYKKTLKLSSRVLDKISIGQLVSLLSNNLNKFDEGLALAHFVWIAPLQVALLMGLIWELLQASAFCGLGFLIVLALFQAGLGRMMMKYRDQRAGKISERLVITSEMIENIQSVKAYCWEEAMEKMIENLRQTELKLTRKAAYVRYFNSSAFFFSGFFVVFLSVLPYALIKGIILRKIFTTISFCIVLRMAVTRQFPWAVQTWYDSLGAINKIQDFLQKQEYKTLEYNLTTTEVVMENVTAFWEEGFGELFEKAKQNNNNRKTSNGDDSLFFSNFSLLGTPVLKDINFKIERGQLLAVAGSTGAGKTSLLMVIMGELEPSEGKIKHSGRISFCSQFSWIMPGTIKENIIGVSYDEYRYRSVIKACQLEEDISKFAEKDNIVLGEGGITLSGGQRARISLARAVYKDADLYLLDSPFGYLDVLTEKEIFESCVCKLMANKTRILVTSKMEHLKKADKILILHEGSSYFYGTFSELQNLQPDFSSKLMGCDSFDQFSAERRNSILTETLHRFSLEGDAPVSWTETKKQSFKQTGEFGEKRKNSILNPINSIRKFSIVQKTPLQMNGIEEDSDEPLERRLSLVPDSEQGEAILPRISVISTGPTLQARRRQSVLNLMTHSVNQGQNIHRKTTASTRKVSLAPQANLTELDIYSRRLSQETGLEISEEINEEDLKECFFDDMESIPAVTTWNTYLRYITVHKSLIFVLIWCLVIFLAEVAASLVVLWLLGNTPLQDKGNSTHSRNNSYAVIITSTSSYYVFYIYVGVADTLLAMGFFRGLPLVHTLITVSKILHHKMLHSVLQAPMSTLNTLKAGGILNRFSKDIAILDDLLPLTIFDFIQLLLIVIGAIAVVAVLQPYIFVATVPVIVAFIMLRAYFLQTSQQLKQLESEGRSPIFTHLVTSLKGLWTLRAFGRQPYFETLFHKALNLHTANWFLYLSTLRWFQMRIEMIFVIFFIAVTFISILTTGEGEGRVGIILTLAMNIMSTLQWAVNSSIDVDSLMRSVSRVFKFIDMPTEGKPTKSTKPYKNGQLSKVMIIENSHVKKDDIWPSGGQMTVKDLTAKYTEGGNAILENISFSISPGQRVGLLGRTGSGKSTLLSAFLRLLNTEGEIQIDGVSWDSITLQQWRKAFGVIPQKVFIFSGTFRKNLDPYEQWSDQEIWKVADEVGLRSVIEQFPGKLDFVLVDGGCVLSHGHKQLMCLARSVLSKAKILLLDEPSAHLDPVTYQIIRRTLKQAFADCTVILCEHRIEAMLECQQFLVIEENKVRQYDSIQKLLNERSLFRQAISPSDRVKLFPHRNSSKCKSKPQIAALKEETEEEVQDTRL

Row | SMILES | Ent. B Max Activity (%) (Table 10) | Ent. B Max Activity (%) (Table 9) | EC50 (Table 9, read-out: Ent. B EC50) [µM] | also measured
1 | Cc1cccc(C)c1-c1cc2nc(n1)NS(=O)(=O)c1cccc(c1)C(=O)N(C1CC3(CCN(C(=O)OC(C)C)CC3)C1)[C@H](CC1(C(F)(F)F)CC1)CO2 [Compound 464] |  |  |  | Ent. B Max Activity (%): +++ (+++ is >60%); EC50 (read-out: Ent. B EC50): < 1 µM
2 | Cc1cccc(C)c1-c1cc2nc(n1)NS(=O)(=O)c1cccc(c1)C(=O)N(C1CC3(CCN(C(=O)CO)CC3)C1)[C@H](CC(C)C)CO2 [Compound 25, (11R)-6-(2,6-Dimethylphenyl)-12-[7-(2-hydroxyacetyl)-7-azaspiro[3.5]nonan-2-yl]-11-isobutyl-2,2-dioxo-9-oxa-2λ^6-thia-3,5,12,19-tetrazatricyclo[12.3.1.14,8]nonadeca-1(18),4(19),5,7,14,16-hexaen-13-one] |  | +++ (+++ is >60%) | < 1 | 
3 | COC1CCN(C(=O)C2CC(N3C(=O)c4cccc(c4)S(=O)(=O)Nc4nc(cc(-c5c(C)cccc5C)n4)OC[C@H]3CC(C)C)C2)CC1 (stereo partly shown) [Compound 308] |  |  |  | Ent. B Max Activity (%): +++ (+++ is >60%); EC50 (read-out: Ent. B EC50): < 1 µM
4 | Cc1cccc(C)c1-c1cc2nc(n1)NS(=O)(=O)c1cccc(c1)C(=O)N(C1CC3(CCN(CCOC(F)(F)F)CC3)C1)[C@H](CC(C)C)CO2 [Compound 299] |  |  |  | Ent. B Max Activity (%): +++ (+++ is >60%); EC50 (read-out: Ent. B EC50): < 1 µM
5 | Cc1cccc(C)c1-c1cc2nc(n1)NS(=O)(=O)c1cccc(c1)C(=O)N([C@H]1C[C@@H](N3CCCCC3)C1)[C@H](CC(C)C)CO2 [Compound 388] |  | +++ (+++ is >60%) | < 1 | 
6 | CO[C@H](C)C(=O)N1CCC2(CC1)CC(N1C(=O)c3cccc(c3)S(=O)(=O)Nc3nc(cc(-c4c(C)cccc4C)n3)OC[C@H]1CC(C)C)C2 [Compound 457] |  | +++ (+++ is >60%) | < 1 | 
7 | Cc1cccc(C)c1-c1cc2nc(n1)NS(=O)(=O)c1cccc(c1)C(=O)N(C1CC(C(=O)N3CCOCC3)C1)[C@H](CC(C)C)CO2 (stereo partly shown) [Compound 307] |  |  |  | Ent. B Max Activity (%): +++ (+++ is >60%); EC50 (read-out: Ent. B EC50): < 1 µM
8 | COC(=O)N(C)[C@H]1C[C@@]2(C1)C[C@H](N1C(=O)c3cccc(c3)S(=O)(=O)Nc3nc(cc(-c4c(C)cccc4C)n3)OC[C@H]1CC1(C(F)(F)F)CC1)C2 (stereo in doubt) [Compound 259] |  | +++ (+++ is >60%) | < 1 | 
9 | COC(=O)N1C[C@H]2C[C@@H](C1)C2N1C(=O)c2cccc(c2)S(=O)(=O)Nc2nc(cc(-c3c(C)cccc3C)n2)OC[C@H]1CC(C)(C)C (single isomer, unassigned) [Compound 143] | ++ (++ is 30-60%) |  |  | EC50 (read-out: Ent. B EC50, Table 10): < 1 µM
10 | Cc1cccc(C)c1-c1cc2nc(n1)NS(=O)(=O)c1cccc(c1)C(=O)N(C1CC3(CCN(C(=O)COC(C)(C)C)CC3)C1)[C@H](CC(C)C)CO2 [Compound 460] |  | +++ (+++ is >60%) | < 1 | 
11 | Cc1cccc(C)c1-c1cc2nc(n1)NS(=O)(=O)c1cccc(n1)C(=O)N(C1CC3(CC(C(=O)N(C)C)C3)C1)[C@H](CC(C)(C)C)CO2 (stereo partly shown) [Compound 414] | +++ (+++ is >60%) |  |  | EC50 [1]: < 1 µM
12 | Cc1cccc(CO)c1-c1cc2nc(n1)NS(=O)(=O)c1cccc(c1)C(=O)N(C1CC3(CC3)C1)[C@H](CC(C)C)CO2 [Compound 2, (11R)-6-[2-(Hydroxymethyl)-6-methyl-phenyl]-11-isobutyl-2,2-dioxo-12-spiro[2.3]hexan-5-yl-9-oxa-2λ^6-thia-3,5,12,19-tetrazatricyclo[12.3.1.14,8]nonadeca-1(18),4(19),5,7,14,16-hexaen-13-one] | ++ (++ is 30-60%) |  |  | EC50 [1]: < 1 µM
13 | Cc1cccc(C)c1-c1cc2nc(n1)NS(=O)(=O)c1cccc(n1)C(=O)N(C1CC3(C1)CC(C(C)(C)O)C3)[C@H](CC(C)(C)C)CO2 (single isomer, unassigned) [Compound 162] | +++ (+++ is >60%) |  |  | EC50 [1]: < 1 µM
14 | Cc1cccc(C)c1-c1cc2nc(n1)NS(=O)(=O)c1cccc(c1)C(=O)N(C1CC(N3CCS(=O)(=O)CC3)C1)[C@H](CC(C)C)CO2 (stereo partly drawn) [Compound 72, (11R)-6-(2,6-dimethylphenyl)-12-[3-(1,1-dioxo-1,4-thiazinan-4-yl)cyclobutyl]-11-isobutyl-2,2-dioxo-9-oxa-2λ^6-thia-3,5,12,19-tetrazatricyclo[12.3.1.14,8]nonadeca-1(18),4(19),5,7,14,16-hexaen-13-one] |  | +++ (+++ is >60%) | < 1 | 
15 | COC(=O)N1CCC2(CC1)CC(N1C(=O)c3cccc(c3)S(=O)(=O)Nc3nc(cc(-c4c(C)cccc4C)n3)OC[C@H]1CC1(C(F)(F)F)CC1)C2 [Compound 261] |  | +++ (+++ is >60%) | < 1 | 
16 | COCCN1CCN([C@H]2C[C@@H](N3C(=O)c4cccc(c4)S(=O)(=O)Nc4nc(cc(-c5c(C)cccc5C)n4)OC[C@H]3CC(C)C)C2)CC1=O [Compound 385] |  | +++ (+++ is >60%) | < 1 | 
17 | Cc1cccc(C)c1-c1cc2nc(n1)NS(=O)(=O)c1cccc(c1)C(=O)N([C@H]1C[C@H](OC(=O)NCC3CCCCC3)C1)[C@H](CC(C)C)CO2 (stereo in doubt) [Compound 363] | ++ (++ is 30-60%) |  |  | EC50 [1]: < 1 µM
18 | Cc1cccc(C)c1-c1cc2nc(n1)NS(=O)(=O)c1cccc(c1)C(=O)N(C1CC3(CCN(C4CCOCC4)CC3)C1)[C@H](CC(C)C)CO2 [Compound 275] |  | +++ (+++ is >60%) | < 1 | 
19 | Cc1cccc(C)c1-c1cc2nc(n1)NS(=O)(=O)c1cccc(c1)C(=O)N(C1CC3(CCN(C(=O)OC(C)(C)C)CC3)C1)[C@H](CC(C)(C)C)CO2 [Compound 437] |  |  |  | Ent. B Max Activity (%): ++ (++ is 30-60%); EC50 (read-out: Ent. B EC50): < 1 µM

Now from value to compound, other results behind:

Row | Ent. B Max Activity (%) (Table 10) | Ent. B Max Activity (%) (Table 9) | EC50 (Table 9, read-out: Ent. B EC50) [µM] | SMILES | also measured
20 | ++ (++ is 30-60%) |  |  | [H][C@]1(N2C(=O)c3cccc(c3)S(=O)(=O)Nc3nc(cc(-c4c(C)cccc4C)n3)OC[C@H]2CC(C)(C)C)C[C@@]2(C[C@H](NC(=O)OC3CCC3)C2)C1 (stereo in doubt) [Compound 355] | EC50 [1]: < 1 µM
21 |  | +++ (+++ is >60%) | < 1 | COC(=O)N[C@H]1C[C@@H](N2C(=O)c3cccc(c3)S(=O)(=O)Nc3nc(cc(-c4c(C)cccc4C)n3)OC[C@H]2CC(C)(C)C)C1 (single isomer, unassigned) [Compound 168] | 
22 | +++ (+++ is >60%) |  |  | Cc1cccc(C)c1-c1cc2nc(n1)NS(=O)(=O)c1cccc(c1)C(=O)N(C1CC3(C1)CC(CO)(CO)C3)[C@H](CC(C)(C)C)CO2 [Compound 354] | EC50 [1]: < 1 µM
23 | +++ (+++ is >60%) |  |  | CCC(=O)NC1CC2(C1)CC(N1C(=O)c3cccc(c3)S(=O)(=O)Nc3nc(cc(-c4c(C)cccc4C)n3)OC[C@H]1CC(C)(C)C)C2 (stereo partly shown) [Compound 353] | EC50 [1]: < 1 µM
24 |  | +++ (+++ is >60%) | < 1 | Cc1cccc(C)c1-c1cc2nc(n1)NS(=O)(=O)c1cccc(c1)C(=O)N(C1CC(NC3CCC3)C1)[C@H](CC(C)C)CO2 (stereo partly shown) [Compound 375] | 
25 |  | +++ (+++ is >60%) | < 1 | COC(=O)N[C@H]1C[C@@H](N2C(=O)c3cccc(c3)S(=O)(=O)Nc3nc(cc(-c4c(C)cccc4C)n3)OC[C@H]2CC(C)C)C1 [Compound 368] | 
26 |  | +++ (+++ is >60%) | < 1 | CC(=O)NC1CC(N2C(=O)c3cccc(c3)S(=O)(=O)Nc3nc(cc(-c4c(C)cccc4C)n3)OC[C@H]2CC(C)(C)C)C1 (single isomer, unassigned) [Compound 448] | 

Source: US20230382925A1, “MODULATORS OF CYSTIC FIBROSIS TRANSMEMBRANE CONDUCTANCE REGULATOR” (VERTEX PHARMACEUTICALS INCORPORATED, priority 2020, published 2023)
